Values after ≈ are worked out from the molar mass of the structure shown. Where two headings read alike, the source gives them in different places.
Columns and labels:
[1] = system: Staphylococcus aureus ATCC49951; assay: Broth microdilution MIC (CLSI)
[2] = system: Staphylococcus aureus cfr (+); assay: Broth microdilution MIC (CLSI)
[3] = system: Staphylococcus aureus vga(A) (+); assay: Broth microdilution MIC (CLSI)
[4] = system: Streptococcus pneumoniae ATCC49619; assay: Broth microdilution MIC (CLSI)
[5] = system: Streptococcus agalactiae lsa(E); assay: Broth microdilution MIC (CLSI)
[6] = system: alpha coronavirus 229E (HCoV-229E or CoV229E); assay: Anti-coronavirus cytoprotection assay (inhibition of virus-induced CPE); assay type: cell-based, human corona virus (CoV229E); conditions: for reduction of viral CPE: MRC-5 / CoV229E; for EC50: Human coronavirus 229E, MRC5, 144 h
Procedure: Objective: The assay measured the inhibition of virus-induced cytopathic effects (CPE) and cell viability following alpha coronavirus 229E (HCoV-229E or CoV229E) in MRC-5 cells 6 days post infections with the virus by various concentrations of the investigated compounds.
Following incubation at 37° C. and at 5% CO2 for 6 days, cell viability was measured by XTT tetrazolium dye staining. The optical density of the cell culture plate was determined spectrophotometrically at 450 and 650 nm. Percent reduction of the virus-infected cells and the percent cell viability of uninfected drug control wells were calculated to determine the effective concentration at which 50% of cytopathic effect was inhibited (EC50) and the cytotoxic concentration (TC50) using four parameter curve fit analysis. The antiviral compound Remdesivir served as positive control.

[7] = system: human respiratory syncytial virus (strain RSVA2); assay: Anti-RSV cytoprotection assay (strain RSVA2); assay type: cell-based; conditions: for reduction of viral CPE: HEp2 / RSVA2; for EC50: human respiratory syncytial virus, HEp-2, 144 h, HEp2 cells infected with RSVA2, 6 days post infection, XTT
[8] = Cell viability of uninfected HEp2 drug control wells (XTT), RSVA2 assay; assay type: cell-based, human; conditions: human, HEp2 cells (uninfected drug control wells); HEp2 cells, RSVA2 assay; read-out: TC50
[9] = system: HEp2 cells; assay: as above; assay type: cell-based, human; conditions: HEp2
[10] = system: respiratory syncytial virus (RSV ALONG); assay: Anti-RSV cytoprotection assay, strain RSV ALONG; assay type: cell-based
[11] = system: respiratory syncytial virus (RSV B18537); assay: Anti-RSV cytoprotection assay, strain RSV B18537; assay type: cell-based
[12] = Cellular toxicity to HEp2 cells, RSV ALONG / RSV B18537 assays; assay type: cell-based; conditions: human, RSV ALONG table, read-out: TC50 (the source's name)
[13] = system: Measles virus strain Edmonston; assay: microbe, parasite or virus in culture; assay type: cell-based; conditions: for EC50: Measles morbillivirus, HeLa
[14] = system: MRC-5 cells; conditions: for cytotoxic effect on the viability of the cell control: MRC-5
[15] = in vitro; conditions: human
[16] = in vitro; conditions: human; remark: listed apart in the source
[17] = Metabolic stability in primary mouse hepatocytes; conditions: 1 μg/mL, 4 hours, 37° C.
[18] = Metabolic stability in primary human hepatocytes; conditions: 1 μg/mL, 4 hours, 37° C.
[19] = system: influenza A virus strain (PR8); conditions: influenza A PR8, concentration of 2 mg/mL; cited from earlier work
[20] = system: polio virus; conditions: cited from earlier work
[21] = system: herpes simplex type 1 (HSV-1) virus; conditions: cited from earlier work
[22] = system: vesicular stomatitis virus (VSV); conditions: cited from earlier work
[23] = system: HeLa cells; assay: Cellular toxicity to HeLa cells, measles assay; conditions: Ribavirin in μg/mL
[24] = system: influenza A virus, porcine reproductive and respiratory syndrome virus (PRRSV) type 1 and 2; conditions: viral up-take assay 4 hours post inoculation, WO 2009/106839; cited from earlier work
[25] = Staphylococcus aureus cfr (+) (n = 2), Lefamulin resistant
[26] = Staphylococcus aureus vga(A) (+), Lefamulin resistant
[27] = Streptococcus agalactiae lsa(E) (n = 2), Lefamulin resistant
[28] = MRC-5 cells infected with CoV229E, 6 days post infection, XTT, read-out: EC50
[29] = Staphylococcus aureus, ATCC49951

Q: With “12-epi-12-desvinyl-14-O-[(azepan-4-ylsulfanyl)-acetyl]-12-((E)-2-pyridin-3-yl-ethenyl) mutilin hydrochloride [Example 154, reference compound]” as the compound, how does the MIC ([1]; Staphylococcus aureus ATCC49951, CAMHB) read?
A: ≤0.03 µg/mL

Q: What about the MIC [2, 25] of the same compound?
A: 0.5 to 4 µg/mL

Q: And the MIC [3, 26]?
A: 2 to 4 µg/mL

Q: What about the MIC [4] of the same compound?
A: ≤0.03 µg/mL

Q: And the MIC [5, 27]?
A: 4 to 8 µg/mL

Q: Which results are given for Cc1nccnc1/C=C/[C@@]1(C)C[C@@H](OC(=O)CSC2CCNCC2)[C@]2(C)[C@H](C)CC[C@]3(CCC(=O)[C@H]32)[C@@H](C)[C@@H]1O [BC 9842, 12-epi-12-desvinyl-14-O-[(Piperidin-4-ylsulfanyl]-acetyl]-12-[2-(3-methyl-pyrazin-2-yl)-ethenyl]-mutilin]?
A: reduction of viral CPE ([6]; 5 μM): 100%; reduction of viral CPE ([6]; 10 μM): 100%; EC50 [6, 28]: 1.92 µM; reduction of viral CPE ([7]; 5 μM): 52.85%; reduction of viral CPE ([7]; 10 μM): 69.33%; EC50 [7]: 4.58 µM; CC50 at 6 days [8]: 22.4 µM; cytotoxic effect on the viability of the cell control ([9]; 5 μM): no cytotoxic effect; cytotoxic effect on the viability of the cell control ([9]; 10 μM): no cytotoxic effect; cytotoxic effect on the viability of the cell control ([9]; 50 μM): cytotoxic effect; EC50 ([10]; human respiratory syncytial virus, HEp-2): > 22400 nM; EC50 ([11]; human respiratory syncytial virus, HEp-2, HEp2 cells infected with RSV B18537, MOI 0.001): 6.77 µM; CC50 [12]: 22.4 µM; reduction of viral CPE ([13]; 10 μM, HeLa / Measles virus): 69%; EC50 [13]: 5.36 µM; cytotoxic effect on the viability of the cell control ([14]; 5 μM): no cytotoxic effect; cytotoxic effect on the viability of the cell control ([14]; 10 μM): no cytotoxic effect; cytotoxic effect on the viability of the cell control ([14]; 50 μM): cytotoxic effect; CC50 at 6 days [15]: 22.4 µM; CC50 [16]: 24.1 µM; MIC [1, 29]: ≤ 0.03 µg/mL; MIC ([2]; Staphylococcus aureus): 1 to 2 µg/mL (≈ 1.75 to 3.51 µM); MIC [2, 25]: ≤ 4 µg/mL; MIC ([3]; Staphylococcus aureus): 4 µg/mL (≈ 7.02 µM); MIC [3, 26]: ≤ 4 µg/mL; MIC [4]: ≤ 0.03 µg/mL; MIC ([5]; Streptococcus agalactiae): 0.5 to 1 µg/mL (≈ 0.877 to 1.75 µM); MIC [5, 27]: ≤ 4 µg/mL; Metabolic stability against primary hepatocytes [% parent compound] [17]: > 60%; Metabolic stability against primary hepatocytes [% parent compound] ([17]; listed as BC-9842): > 60%; Metabolic stability against primary hepatocytes [% parent compound] ([17]; listed as BC-¬9842): 63.8%; Metabolic stability against primary hepatocytes [% parent compound] [18]: > 20%; Metabolic stability against primary hepatocytes [% parent compound] ([18]; listed as BC-9842): > 20%; Metabolic stability against primary hepatocytes [% parent compound] ([18]; listed as BC-¬9842): 24.7%

Q: Which MIC [1, 29] does the source give for C=C[C@]1(C)C[C@@H](OC(=O)CS[C@@H]2CC[C@@H](N)C[C@H]2O)[C@]2(C)[C@H](C)CC[C@]3(CCC(=O)[C@H]32)[C@@H](C)[C@@H]1O [Lefamulin, reference compound] here?
A: ≤ 0.03 µg/mL

Q: What about the MIC ([2]; Staphylococcus aureus) of the same compound?
A: 16 µg/mL (≈ 31.5 µM)

Q: And the MIC ([3]; Staphylococcus aureus)?
A: 8 µg/mL (≈ 15.8 µM)

Q: What about the MIC [4] of the same compound?
A: ≤ 0.03 µg/mL

Q: What about the MIC ([5]; Streptococcus agalactiae) of the same compound?
A: 16 µg/mL (≈ 31.5 µM)

Q: With C=C[C@]1(C)C[C@@H](OC(=O)CO)[C@]2(C)[C@H](C)CC[C@]3(CCC(=O)[C@H]32)[C@@H](C)[C@@H]1O [Pleuromutilin] as the compound, how does the antiviral activity [19] read?
A: antiviral activity

Q: And the antiviral activity [20]?
A: did not show antiviral activity

Q: What about the “CPE50 (concentration conferring 50% protection of the cytopathic effect induced by HSV-1)” value [21] of the same compound?
A: 15 µg/mL

Q: And the EC50 ([21]; read-out: CPE50 (concentration conferring 50% protection of the cytopathic effect induced by HSV-1))?
A: 40 µM

Q: What about the “activity against vesicular stomatitis virus” value [22] of the same compound?
A: activity

Q: For CCC(CC)COC(=O)[C@H](C)N[P@](=O)(OC[C@H]1O[C@@](C#N)(c2ccc3c(N)ncnn23)[C@H](O)[C@@H]1O)Oc1ccccc1 [Remdesivir, reference compound], which EC50 [6] is on record?
A: 0.11 µM

Q: What about the CC50 ([14]; human) of the same compound?
A: > 5 µM

Q: Which results are given for NC(=O)c1ncn([C@@H]2O[C@H](CO)[C@@H](O)[C@H]2O)n1 [Ribavirin, reference compound]?
A: EC50 [13]: 1.88 µg/mL; TC50 [23]: 21.6 µg/mL (≈ 88.4 µM)

Q: What does the source list for C=C[C@]1(C)C[C@@H](OC(=O)CSCCN(CC)CC)[C@]2(C)[C@H](C)CC[C@]3(CCC(=O)[C@H]32)[C@@H](C)[C@@H]1O [Tiamulin, reference compound]?
A: reduction of viral CPE ([6]; 10 μM): 10.53%; reduction of viral CPE ([6]; 50 μM): 81.68%; EC50 [6, 28]: 24.4 µM; reduction of viral CPE ([7]; 10 μM): 16.76%; reduction of viral CPE ([7]; 50 μM): 43.28%; EC50 [7]: > 67.9 µM; viability (cell control) ([9]; 10 μM): 84%; viability (cell control) ([9]; 50 μM): 70.0%; cytotoxic effect on the viability of the cell control ([14]; 10 μM): no cytotoxic effect; cytotoxic effect on the viability of the cell control ([14]; 50 μM): cytotoxic effect

Q: With C=C[C@]1(C)C[C@@H](OC(=O)CSC(C)(C)CNC(=O)[C@H](N)C(C)C)[C@]2(C)[C@H](C)CC[C@]3(CCC(=O)[C@H]32)[C@@H](C)[C@@H]1O [Valnemulin] as the compound, how does the antiviral activity [24] read?
A: did not exhibit antiviral activity

Q: What does the source list for TMC353121 [reference compound]?
A: EC50 ([10]; RSV A strain (RSV ALONG), HEp2, text, read-out: EC50): 0.01 nM; EC50 ([11]; RSV B strain (RSV B18537), HEp2, text): 1e-05 µM

Reference: patent US12630524B2, “Pleuromutilin in derivatives for treating viral infections” (ARIVA MED GMBH, priority 2020, dated 2026)
